# Measurements reported in patent US5968926A, “Antipsychotic method” (Novo Nordisk A/S, priority 1995, dated 1999).
# Where a name gives a salt, the structure may show the parent alone.
# How the values were obtained:
# [1] = tested on: conditioned avoidance responding; assay: Conditioned avoidance behavior in rats; format: in vivo, rat; details: 3.0 mg/kg s.c. 30 min before session, 50 trials
# Excerpt: In a conditioned avoidance test, animals learn to respond during a conditioned stimulus in order to avoid mild shock presentation. A response during the conditioned stimulus is termed an avoidance respone, a response during shock is termed an escape response; a response failure is when the animal fails to respond during either the conditioned stimlus or the shock presentation and is indicative of motor impairment. […] Antipsychotic drugs decrease the percentage of avoidance responses without interfering with the ability of the animal to respond since the animals do emit escape responses. The percentage of response failures is considered a measure of motor impairment.
# Rats were required to press a response lever in an experimental chamber in order to avoid or escape foot-shock. Each experimental session consisted of 50 trials. During each trial, the chamber was illuminated and a tone presented for a maximum of 10 sec. A response during the tone immediately terminated the tone and the houselight, ending the trial. In the absence of a response during the tone alone, tone+foot-shock (2.0 mA) was presented for a maximum of 10 sec. A response during shock presentation immediately terminated the shock, the tone and the houselight, ending the trial.
# For drug screening, a dose of 3.0 mg/kg was administered s.c. 30 min before the start of the experimental session.
# [2] = blood samples of treated patients, 17 patients, trial terminated; cited from earlier work
Structure (SMILES),Conditioned Avoidance % Avoidance Responses [1],further results
"CCOc1nsnc1[C@H]1CN2CCC[C@H]1C2 (relative stereo) [Compound 19, Exo-6-(3-ethoxy-1,2,5-thiadiazol-4-yl)-1-azabicyclo[3.2.1]octane oxalate]",73%,
"CCCCSc1nsnc1[C@H]1CN2CCC[C@H]1C2 (relative stereo) [Compound 30, Exo-6-(3-butylthio-1,2,5-thiadiazol-4-yl)-1-azabicyclo[3.2.1]octane oxalate]",32%,
"CCSc1nsnc1[C@H]1CN2CCC[C@H]1C2 (relative stereo) [Compound 32, Exo-6-(3-ethylthio-1,2,5-thiadiazol-4-yl)-1-azabicyclo[3.2.1]octane oxalate]",46%,
"CCCSc1nsnc1[C@H]1CN2CCC[C@H]1C2 (relative stereo) [Compound 58, Exo-6-(3-propylthio-1,2,5-thiadiazol-4-yl)-1-azabicyclo[3.2.1]octane oxalate]",41%,
"CSc1nsnc1[C@H]1CN2CCC[C@H]1C2 (relative stereo) [Compound 74, Exo-6-(3-methylthio-1,2,5-thiadiazol-4-yl)-1-azabicyclo[3.2.1]octane oxalate]",22%,
"N#Cc1ccc(CSc2nsnc2[C@H]2CN3CCC[C@H]2C3)cc1 (relative stereo) [Compound 82, Exo-6-(3-(4-cyanobenzylthio)-1,2,5-thiadiazol-4-yl)-1-azabicyclo[3.2.1]octane oxalate]",24%,
"CCCOc1nsnc1[C@H]1CN2CCC[C@H]1C2 (relative stereo) [Compound 119, Exo-6-(3-propoxy-1,2,5-thiadiazol-4-yl)-1-azabicyclo[3.2.1]octane oxalate]",29%,
"CCCCOc1nsnc1[C@H]1CN2CCC[C@H]1C2 (relative stereo) [Compound 120, Exo-6-(3-butoxy-1,2,5-thiadiazol-4-yl)-1-azabicyclo[3.2.1]octane oxalate]",27%,
"CCCCSc1nsnc1C1CN2CCC1CC2.O=C(O)C(O)C(O)C(=O)O (single isomer, unassigned) [Compound 56, (+) 3-(3-Butylthio-1,2,5-thiadiazol-4-yl)-1-azabicyclo (2.2.2]octane (-) D-tartrate]",6%,
"CCCCSc1nsnc1C1CN2CCCC1C2 (single isomer, unassigned) [Compound 111, (-)-Exo-6-(3-butylthio-1,2,5-thiadiazol-4-yl)-1-azabicyclo[3.2.1]octane (+) L-tartrate]",,Conditioned Avoidance % Avoidance Responses ([1]; 3 mg/kg): 8%
"CCCCSc1nsnc1C1CN2CCCC1C2 (single isomer, unassigned) [Compound 112, (+)-Exo-6-(3-butylthio-1,2,5-thiadiazol-4-yl)-1-azabicyclo[3.2.1]octane (-) D-tartrate]",,Conditioned Avoidance % Avoidance Responses ([1]; 3 mg/kg): 2%
"CCCSc1nsnc1C1CN2CCCC1C2 (single isomer, unassigned; (+)) [Compound 113, (+)-Exo-6-(3-propylthio-1,2,5-thiadiazol-4-yl)-1-azabicyclo[3.2.1]octane (+) L-tartrate]",,Conditioned Avoidance % Avoidance Responses ([1]; 3 mg/kg): 19%
"CCCSc1nsnc1C1CN2CCCC1C2 (single isomer, unassigned; (-)) [Compound 114, (-)-Exo-6-(3-propylthio-1,2,5-thiadiazol-4-yl)-1-azabicyclo[3.2.1]octane (-) D-tartrate]",,Conditioned Avoidance % Avoidance Responses ([1]; 3 mg/kg): 39%
"CCOc1nsnc1C1CN2CCC1CC2.O=C(O)/C=C/C(=O)O (centres unmarked) [Compound 9, 3-(3-Ethoxy-1,2,5-thiadiazol-4-yl)-1-azabicyclo[2.2.2]octane fumarate]",65%,
"CCCCCCOc1nsnc1C1CN2CCC1CC2.O=C(O)/C=C/C(=O)O (centres unmarked) [Compound 11, 3-(3-Hexyloxy-1,2,5-thiadiazol-4-yl)-1-azabicyclo[2.2.2]octane fumarate]",11%,
"CCCCSc1nsnc1C1CN2CCC1CC2.O=C(O)/C=C/C(=O)O (centres unmarked) [Compound 13, 3-(3-Butylthio-1,2,5-thiadiazol-4-yl)-1-azabicyclo[2.2.2]octane fumarate]",18%,
"CCCCOc1nsnc1C1CN2CCC1CC2.O=C(O)C(=O)O (centres unmarked) [Compound 46, 3-(3-Butoxy-1,2,5-thiadiazol-4-yl)-1-azabicyclo[2.2.2]octane oxalate]",30%,
"CCSc1nsnc1C1CN2CCC1CC2.O=C(O)C(=O)O (centres unmarked) [Compound 52, 3-(3-Ethylthio-1,2,5-thiadiazol-4-yl)-1-azabicyclo[2.2.2]octane oxalate]",63%,
"CCCSc1nsnc1C1CN2CCC1CC2.O=C(O)C(=O)O (centres unmarked) [Compound 53, 3-(3-Propylthio-1,2,5-thiadiazol-4-yl)-1-azabicyclo[2.2.2]octane oxalate]",41%,
"O=C(O)/C=C/C(=O)O.c1ccc(OCCSc2nsnc2C2CN3CCC2CC3)cc1 (centres unmarked) [Compound 102, 3-(3-(2-Phenoxyethylthio)-1,2,5-thiadiazol-4-yl)-1-azabicyclo[2.2.2) octane fumarate]",3%,
"N#CCSc1nsnc1C1CN2CCC1CC2.O=C(O)C(=O)O (centres unmarked) [Compound 103, 3-(3-Cyanomethylthio-1,2,5-thiadiazol-4-yl)-1-azabicyclo[2.2.2]octane oxalate]",51%,
"O=C(O)/C=C/C(=O)O.c1csc(CCCSc2nsnc2C2CN3CCC2CC3)c1 (centres unmarked) [Compound 104, 3-(3-(3-(2-Thienyl)propylthio)-1,2,5-thiadiazol-4-yl)-1-azabicyclo[2.2.2]octane fumarate]",24%,
"Cn1nnnc1SCCCCSc1nsnc1C1CN2CCC1CC2 (centres unmarked) [Compound 106, oxalate]",55%,
"Cc1nnc(SCCCCSc2nsnc2C2CN3CCC2CC3)s1 (centres unmarked) [Compound 107, oxalate]",52%,
"CSc1nsnc1C1CN2CCC1CC2.O=C(O)C(=O)O (centres unmarked) [Compound 131, 3-(3-Methylthio-1,2,5-thiadiazol-4-yl)-1-azabicyclo[2.2.2]octane oxalate]",53%,
"Cc1cc2c(s1)Nc1ccc(F)cc1N=C2N1CCN(C)CC1 [flumezapine, 7-fluoro-2-methyl-10-(4-methyl-1-piperazinyl)-4H-thieno[2,3-b][1,5]-benzodiazepine]",,"enzyme levels: creatinine phosphokinase (CPK), SGOT, SGPT [2]: in substantial excess of normal values"
